ChEMBL document CHEMBL1201862, “PubChem BioAssay data set” (2004)
The source made the active and inactive calls.

How the values were obtained:
Cytochrome P450 2D6 = Cytochrome P450 2D6 (Homo sapiens, UniProt P10635);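 also: CYP2D6 member of a cytochrome P450 panel assay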
Cytochrome P450 1A2 = molecular target: T1, Cytochrome P450 1A2 (Homo sapiens, UniProt P05177);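 also: PubChem cytochrome P450 panel assay, CYP1A2 panel member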
T1 sequence (P05177 whole entry): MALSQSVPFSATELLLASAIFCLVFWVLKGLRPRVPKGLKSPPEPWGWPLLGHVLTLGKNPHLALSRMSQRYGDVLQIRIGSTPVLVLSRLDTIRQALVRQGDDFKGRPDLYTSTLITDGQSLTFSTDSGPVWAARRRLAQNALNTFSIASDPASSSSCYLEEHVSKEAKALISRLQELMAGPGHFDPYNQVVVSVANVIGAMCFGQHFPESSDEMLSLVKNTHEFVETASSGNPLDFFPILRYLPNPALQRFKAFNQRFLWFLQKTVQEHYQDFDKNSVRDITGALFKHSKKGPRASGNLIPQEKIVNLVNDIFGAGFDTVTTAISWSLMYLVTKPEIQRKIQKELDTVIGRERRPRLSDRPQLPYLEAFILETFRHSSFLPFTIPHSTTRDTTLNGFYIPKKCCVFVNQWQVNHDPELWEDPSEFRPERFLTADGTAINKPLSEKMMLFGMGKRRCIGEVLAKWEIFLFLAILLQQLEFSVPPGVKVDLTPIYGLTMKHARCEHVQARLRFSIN

Cytochrome P450 2C9 = Cytochrome P450 2C9 (Homo sapiens, UniProt P11712)
Cytochrome P450 3A4 = Cytochrome P450 3A4 (Homo sapiens, UniProt P08684);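 also: CYP3A4 tested as one member of a cytochrome P450 panel screen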
[1] = molecular target: T2, Replicative DNA helicase DnaB (Mycobacterium tuberculosis, UniProt P9WMR3); experiment: DnaB intein splicing inhibitors, dose response, biochemical, cell-free fluorescence (AID 449749); type: functional
T2 sequence (P9WMR3 whole entry): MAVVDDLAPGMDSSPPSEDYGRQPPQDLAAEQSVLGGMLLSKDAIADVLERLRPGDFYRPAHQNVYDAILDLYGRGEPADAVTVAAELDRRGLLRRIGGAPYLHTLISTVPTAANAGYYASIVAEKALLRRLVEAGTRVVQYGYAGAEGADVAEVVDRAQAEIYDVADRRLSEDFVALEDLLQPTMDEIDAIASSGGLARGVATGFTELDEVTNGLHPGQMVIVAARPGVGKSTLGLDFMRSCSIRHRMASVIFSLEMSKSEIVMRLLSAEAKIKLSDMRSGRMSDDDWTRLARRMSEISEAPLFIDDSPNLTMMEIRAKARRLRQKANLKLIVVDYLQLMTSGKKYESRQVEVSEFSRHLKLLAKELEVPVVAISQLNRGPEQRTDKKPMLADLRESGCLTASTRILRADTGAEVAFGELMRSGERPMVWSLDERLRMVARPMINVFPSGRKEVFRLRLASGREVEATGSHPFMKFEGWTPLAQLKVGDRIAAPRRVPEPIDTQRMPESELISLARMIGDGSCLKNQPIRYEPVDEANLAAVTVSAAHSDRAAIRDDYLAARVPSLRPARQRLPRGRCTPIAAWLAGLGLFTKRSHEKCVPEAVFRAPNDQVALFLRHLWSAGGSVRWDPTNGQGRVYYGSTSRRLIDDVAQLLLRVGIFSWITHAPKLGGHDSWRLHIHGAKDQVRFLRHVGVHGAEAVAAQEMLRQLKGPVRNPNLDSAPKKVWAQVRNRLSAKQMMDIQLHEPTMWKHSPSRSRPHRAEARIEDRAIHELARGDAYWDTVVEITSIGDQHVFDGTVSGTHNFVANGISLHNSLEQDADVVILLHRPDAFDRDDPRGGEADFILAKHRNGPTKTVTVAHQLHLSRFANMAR

Protein RecA = molecular target: T3, Protein RecA (Mycobacterium tuberculosis, UniProt P9WHJ3); experiment: Fluorescence Cell-Free Homogeneous Dose Retest to Identify Inhibitors of RecA-Intein Splicing Activity. [Related pubchem assays (depositor defined):AID2097, AID2223, AID489010, AID492950]; type: functional
T3 sequence (P9WHJ3 whole entry): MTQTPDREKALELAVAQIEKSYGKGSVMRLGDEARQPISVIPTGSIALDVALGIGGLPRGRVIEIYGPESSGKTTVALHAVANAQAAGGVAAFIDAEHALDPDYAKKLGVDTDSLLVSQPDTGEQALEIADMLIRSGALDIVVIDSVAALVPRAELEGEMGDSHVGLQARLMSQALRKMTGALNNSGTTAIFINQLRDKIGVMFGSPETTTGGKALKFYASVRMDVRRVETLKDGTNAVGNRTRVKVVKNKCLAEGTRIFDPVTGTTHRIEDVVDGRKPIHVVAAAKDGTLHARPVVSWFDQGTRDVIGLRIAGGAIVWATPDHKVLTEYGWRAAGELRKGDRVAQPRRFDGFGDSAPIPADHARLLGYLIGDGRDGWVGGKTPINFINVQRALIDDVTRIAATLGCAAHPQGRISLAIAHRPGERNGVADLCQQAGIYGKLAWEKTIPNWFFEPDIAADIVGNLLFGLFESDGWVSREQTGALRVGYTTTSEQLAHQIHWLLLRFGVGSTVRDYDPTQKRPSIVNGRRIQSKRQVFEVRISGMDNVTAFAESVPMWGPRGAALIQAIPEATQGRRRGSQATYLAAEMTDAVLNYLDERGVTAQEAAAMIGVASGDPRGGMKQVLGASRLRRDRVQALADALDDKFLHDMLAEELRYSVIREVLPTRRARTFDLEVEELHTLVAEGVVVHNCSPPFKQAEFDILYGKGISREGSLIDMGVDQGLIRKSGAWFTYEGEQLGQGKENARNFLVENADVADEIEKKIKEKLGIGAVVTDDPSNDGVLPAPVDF

[2] = Luminescence Cell-Based Dose Response HTS to Identify Activators of Luciferase Translation or Activity in H4 […] Cells. [Related pubchem assays: 1829 (Project Summary), 1814 (Primary HTS)]; type: functional
H4 = experiment: Luminescence Cell-Based Dose Response HTS to Identify Activators of 5'UTR Stem-Loop Driven Prion Protein mRNA Translation in H4 Neuroglioblastoma Cells. [Related pubchem assays: 1829 (Project Summary), 1814 (Primary HTS)]; type: functional; details: Homo sapiens
Cytochrome P450 2C19 = Cytochrome P450 2C19 (Homo sapiens, UniProt P33261); experiment: Cytochrome panel assay with activity outcomes. Panel member name: p450-cyp2c19 Compounds with AC50 equal or less than 10 uM are considered active; type: functional; details: read-out: AC50
[3] = tested on: Streptococcus sp. 'group A'; experiment: growth inhibition of control SK(-) GAS strain, dose response, counter-screen for streptokinase expression inhibitor project, luminescence, kanamycin, BacTiterGlo, confirmation (AID 1900); type: functional, organism-based
Streptococcus = experiment: Group A Streptococcus viability loss, dose response, counter-screen for streptokinase expression inhibitor project, luminescence, BacTiterGlo (AID 1915); type: functional, organism-based;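 also: potency for reduction of bacterial viability or growth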
[4] = NIH-3T3 fibroblast cytotoxicity, dose response, cytotoxicity control, cell-based, fluorescence, Alamar Blue, secondary assay (AID 2327); type: functional;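 also: NIH-3T3 mouse fibroblasts cultured with fluconazole at 8 µg/mL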

Sequence of Cytochrome P450 3A4 (P08684 whole entry): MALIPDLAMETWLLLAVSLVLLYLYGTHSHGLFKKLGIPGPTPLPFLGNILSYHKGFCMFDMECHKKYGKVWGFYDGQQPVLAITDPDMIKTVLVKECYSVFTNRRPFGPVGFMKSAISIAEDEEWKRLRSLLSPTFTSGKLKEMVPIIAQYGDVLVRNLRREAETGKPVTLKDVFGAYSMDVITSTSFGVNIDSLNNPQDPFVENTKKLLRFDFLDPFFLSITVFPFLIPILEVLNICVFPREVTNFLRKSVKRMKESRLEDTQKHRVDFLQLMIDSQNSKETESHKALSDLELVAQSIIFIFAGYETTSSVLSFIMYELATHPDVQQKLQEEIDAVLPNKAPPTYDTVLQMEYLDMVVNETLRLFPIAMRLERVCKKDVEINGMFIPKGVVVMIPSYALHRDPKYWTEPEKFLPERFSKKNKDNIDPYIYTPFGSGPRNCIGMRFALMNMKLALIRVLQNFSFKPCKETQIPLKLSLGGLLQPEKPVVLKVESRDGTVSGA
Sequence of Cytochrome P450 2C9 (P11712 whole entry): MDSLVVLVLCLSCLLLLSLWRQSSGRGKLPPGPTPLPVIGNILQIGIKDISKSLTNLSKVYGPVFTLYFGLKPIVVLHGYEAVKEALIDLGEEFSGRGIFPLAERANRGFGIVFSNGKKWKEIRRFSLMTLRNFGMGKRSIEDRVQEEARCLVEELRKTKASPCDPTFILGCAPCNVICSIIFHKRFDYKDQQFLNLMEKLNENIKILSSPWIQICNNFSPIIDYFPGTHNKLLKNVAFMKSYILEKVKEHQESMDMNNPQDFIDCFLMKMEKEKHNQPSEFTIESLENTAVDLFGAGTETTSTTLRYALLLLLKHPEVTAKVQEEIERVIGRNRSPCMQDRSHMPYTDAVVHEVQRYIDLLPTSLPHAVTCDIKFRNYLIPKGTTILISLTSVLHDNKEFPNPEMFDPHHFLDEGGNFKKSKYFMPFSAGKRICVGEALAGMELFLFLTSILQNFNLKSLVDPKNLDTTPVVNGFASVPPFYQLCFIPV
Sequence of Cytochrome P450 2C19 (P33261 whole entry): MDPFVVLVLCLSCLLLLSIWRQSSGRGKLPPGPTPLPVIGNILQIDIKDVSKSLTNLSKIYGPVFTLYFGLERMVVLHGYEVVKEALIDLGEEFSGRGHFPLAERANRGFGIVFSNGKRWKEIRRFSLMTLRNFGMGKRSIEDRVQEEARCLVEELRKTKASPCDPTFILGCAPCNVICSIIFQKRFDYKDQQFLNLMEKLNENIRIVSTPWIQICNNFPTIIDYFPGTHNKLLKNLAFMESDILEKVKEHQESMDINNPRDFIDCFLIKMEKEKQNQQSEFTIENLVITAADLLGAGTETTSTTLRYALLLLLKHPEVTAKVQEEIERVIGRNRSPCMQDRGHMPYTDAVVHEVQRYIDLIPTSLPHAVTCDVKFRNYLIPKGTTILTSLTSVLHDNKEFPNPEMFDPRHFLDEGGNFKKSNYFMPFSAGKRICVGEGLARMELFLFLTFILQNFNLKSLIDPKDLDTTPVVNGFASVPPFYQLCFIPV
Sequence of Cytochrome P450 2D6 (P10635 whole entry): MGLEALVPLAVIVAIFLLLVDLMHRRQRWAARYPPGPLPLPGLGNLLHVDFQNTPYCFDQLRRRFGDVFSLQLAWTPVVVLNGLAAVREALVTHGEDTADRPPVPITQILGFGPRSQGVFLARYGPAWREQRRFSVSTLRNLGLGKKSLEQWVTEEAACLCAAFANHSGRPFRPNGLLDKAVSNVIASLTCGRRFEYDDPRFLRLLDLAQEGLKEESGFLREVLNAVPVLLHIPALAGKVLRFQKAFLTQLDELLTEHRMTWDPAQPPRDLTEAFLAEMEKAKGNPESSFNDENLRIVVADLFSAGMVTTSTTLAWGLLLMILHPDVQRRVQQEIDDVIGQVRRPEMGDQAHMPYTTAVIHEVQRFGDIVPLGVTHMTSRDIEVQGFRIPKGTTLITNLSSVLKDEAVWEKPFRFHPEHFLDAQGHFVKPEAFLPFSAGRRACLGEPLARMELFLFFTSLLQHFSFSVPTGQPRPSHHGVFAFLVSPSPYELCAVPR

For `CN(C)c1ncc2nc(-c3ccc(F)cc3)c(=O)n(CCC#N)c2n1`, the AC50 (Cytochrome P450 2D6) was 0.501 µM (inconclusive) and the AC50 (Cytochrome P450 1A2) was 1.26 µM (inconclusive).
For `Cc1ccc(C)c(Nc2nc3nonc3nc2N2CCOCC2)c1`, the AC50 (Cytochrome P450 2C9) was 0.355 µM (inconclusive).
In the case of `CN1CCN(c2ncnc3ccc(-c4cccc(NS(C)(=O)=O)c4)cc23)CC1`, the AC50 (Cytochrome P450 3A4) is reported as 12.6 µM (inconclusive) and the AC50 (Cytochrome P450 1A2) is reported as 25.1 µM (inconclusive).
With `CN(C)C(=S)N=Nc1[nH]c2ccccc2c1O` the AC50 [1] was 10.7 µM (active) and the EC50 (Protein RecA) was 6.07 µM (active).
With `COc1cccc(-c2[nH]nc3c2C(c2ccsc2)C(C#N)=C(N)O3)c1` (configuration not stated) the AC50 [1] was 2 µM (active) and the EC50 (Protein RecA) was 0.52 µM (active).
With `COc1cccc(NC(=O)NCCC2=CCCCC2)c1` the EC50 [2] was 51 µM (active) and the EC50 (H4) was 0.324 µM (active).
With `O=C(CSc1nnc(Cc2ccccc2)o1)Nc1cccc(F)c1` the AC50 [1] was 71.3 µM (active) and the EC50 (Protein RecA) was 86.1 µM (active).
In the case of `O=C(NCCCN1CCCCCC1)[C@@H](c1ccccc1)C1CCCCC1`, the AC50 (Cytochrome P450 1A2) is reported as 31.6 µM (inconclusive).
In the case of `Cc1nn2c(NCC(C)C)c3c(nc2c1-c1ccccc1)CCC3`, the AC50 (Cytochrome P450 2C9) is reported as 0.708 µM (inconclusive) and the AC50 (Cytochrome P450 3A4) is reported as 10 µM (inconclusive).
In the case of `CS(=O)(=O)C1=NSC2=NC(=O)/C(=C\c3ccc(OC(=O)c4ccco4)cc3)C(=N)N21`, the AC50 [1] is reported as > 120 µM (inactive) and the EC50 (Protein RecA) is reported as 16 µM (active).
In the case of `CCOc1ccc(N2CC(C(=O)NCc3cccc(C)c3)CC2=O)cc1` (configuration not stated), the AC50 (Cytochrome P450 1A2) is reported as 14.1 µM (inconclusive).
With `CCCCNC(=O)C(=O)c1ccccc1NC(C)=O` the AC50 (Cytochrome P450 2C19) was 22.4 µM (inconclusive) and the AC50 (Cytochrome P450 1A2) was 39.8 µM (inconclusive).
For `CC(C)On1c(SC(C)C)nc2ccccc2c1=O`, the AC50 (Cytochrome P450 2C9) was 31.6 µM (inconclusive) and the AC50 (Cytochrome P450 2C19) was 28.2 µM (inconclusive).
For `COc1ccc(S(=O)(=O)N(CC(=O)N2CCCC2)Cc2ccccc2)cc1`, the AC50 (Cytochrome P450 2C9) was 1 µM (inconclusive).
For `CCOC(=O)CSc1nnc(Cc2ccccc2)n1-c1cccc(Cl)c1`, the AC50 (Cytochrome P450 2C9) was 39.8 µM (inconclusive), the AC50 (Cytochrome P450 2D6) was 0.0891 µM (inconclusive) and the AC50 (Cytochrome P450 1A2) was 25.1 µM (inconclusive).
With `Cc1cc(C)c2c(-n3cccc3)[nH]nc2n1` the AC50 (Cytochrome P450 2C9) was 6.31 µM (inconclusive).
With `O=C(CN(c1cccc(Br)c1)S(=O)(=O)c1ccccc1)N/N=C/c1cc([N+](=O)[O-])ccc1O` the EC50 [3] was 0.364 µM (active), the AC50 [1] was > 380 µM (inactive) and the EC50 (Streptococcus) was 0.587 µM (active). For the same compound, the EC50 (Protein RecA) was > 380 µM (inactive).
For `O=[N+]([O-])c1ccc(/C=N/Nc2cc(Cl)nc(-c3ccccc3)n2)cc1`, the AC50 (Cytochrome P450 2C9) was 0.00562 µM (inconclusive).
For `C/C(=N\Nc1ccc(Cl)cc1)c1c(O)cc(C)oc1=O`, the EC50 [4] was 29.4 µM (active).
For `c1ccc(C[C@@H](c2ccccc2)N2CCCCC2)cc1`, the AC50 (Cytochrome P450 3A4) was 31.6 µM (inconclusive), the AC50 (Cytochrome P450 2C19) was 7.94 µM (inconclusive) and the AC50 (Cytochrome P450 1A2) was 15.8 µM (inconclusive).
